Assay results from patent US11771738B2 (Zoetis Services LLC, priority 2018, dated 2023).
Where two headings read alike, the source gives them in different places.

How the values were obtained:
Format in all cases: cell-based
[1] = tested on: third stage larvae of Haemonchus contortus; experiment: Haemonchus contortus, Larvae Stage 3 (HcL3) In Vitro Assay; settings: Haemonchus contortus, 96 h
D. immitis L4 larvae = experiment: Dirofilaria immitis, L4 Stage (DiL4) In Vitro Assay; settings: for minimal effective concentration: Dirofilaria immitis, 72 h, read-out: DiL4 MED, Minimum Effective Dose, D. immitis L4 larvae motility, in vitro; for DiMf/DiL4: larval stage selectivity, ratio of DiMf MED to DiL4 MED
[2] = tested on: microfilariae of Dirofilaria immitis; experiment: Dirofilaria immitis, Microfilaria (DiMf) In Vitro Assay; settings: Dirofilaria immitis, 72 h, read-out: DiMf MED, Minimum Effective Dose, D. immitis microfilariae motility, in vitro
[3] = read-out: HcL3 MED (symbol after Ex#), approximately 96 hours incubation, multiple-resistant field isolate
[4] = read-out: HcL3 MED, Minimum Effective Dose, H. contortus third stage larvae, approximately 96 hours
[5] = read-out: HcL3 MED, approximately 96 hours incubation, multiple-resistant field isolate

Row | SMILES | minimal effective concentration [1, 3] [µM] | minimal effective concentration [1, 4] [µM] | minimal effective concentration [1, 5] [µM] | minimal effective concentration (D. immitis L4 larvae) [µM] | DiMf/DiL4 (D. immitis L4 larvae) | minimal effective concentration [2] [µM]
1 | Cc1ccsc1Cc1ccc(C[C@H]2OC(=O)[C@H](CC(C)C)N(C)C(=O)[C@@H](C)OC(=O)[C@H](CC(C)C)N(C)C(=O)[C@@H](Cc3ccccc3)OC(=O)[C@H](CC(C)C)N(C)C(=O)[C@@H](C)OC(=O)[C@H](CC(C)C)N(C)C2=O)cc1 [Example 4-34, (3S,6R,9S,12R,15S,18R,21S,24R)-6-benzyl-3,9,15,21-tetraisobutyl-4,10,12,16,22,24-hexamethyl-18-(4-((3-methylthiophen-2-yl)methyl)benzyl)-1,7,13,19-tetraoxa-4,10,16,22-tetraazacyclotetracosan-2,5,8,11,14,17,20,23-octaone] | < 1 | 0.5 | ≤ 1 | 0.0003 | 33.3 | 0.01
2 | CC(C)C[C@H]1C(=O)O[C@H](Cc2ccc(Cc3occc3C#N)cc2)C(=O)N(C)[C@@H](CC(C)C)C(=O)O[C@H](C)C(=O)N(C)[C@@H](CC(C)C)C(=O)O[C@H](Cc2ccccc2)C(=O)N(C)[C@@H](CC(C)C)C(=O)O[C@H](C)C(=O)N1C [Example 4-40, 2-(4-(((2R,5S,8R,11S,14R,17S,20R,23S)-14-benzyl-5,11,17,23-tetraisobutyl-4,8,10,16,20,22-hexamethyl-3,6,9,12,15,18,21,24-octaoxo-1,7,13,19-tetraoxa-4,10,16,22-tetraazacyclotetracosan-2-yl)methyl)benzyl)furan-3-carbonitrile] | < 1 | 0.5 | ≤ 1 | 0.0002 | 2.5 | 0.0005
3 | CC(C)C[C@H]1C(=O)O[C@H](Cc2ccc(Cc3ccsc3)cc2)C(=O)N(C)[C@@H](CC(C)C)C(=O)O[C@H](C)C(=O)N(C)[C@@H](CC(C)C)C(=O)O[C@H](Cc2ccccc2)C(=O)N(C)[C@@H](CC(C)C)C(=O)O[C@H](C)C(=O)N1C [Example 4-50, (3S,6R,9S,12R,15S,18R,21S,24R)-6-benzyl-3,9,15,21-tetraisobutyl-4,10,12,16,22,24-hexamethyl-18-(4-(thiophen-3-ylmethyl)benzyl)-1,7,13,19-tetraoxa-4,10,16,22-tetraazacyclotetracosan-2,5,8,11,14,17,20,23-octaone] | 1 to 3.3 | 1.8 | – | 0.001 | 10 | 0.01
4 | CC(C)C[C@H]1C(=O)O[C@H](Cc2ccc(Cc3ccnn3C)cc2)C(=O)N(C)[C@@H](CC(C)C)C(=O)O[C@H](C)C(=O)N(C)[C@@H](CC(C)C)C(=O)O[C@H](Cc2ccccc2)C(=O)N(C)[C@@H](CC(C)C)C(=O)O[C@H](C)C(=O)N1C [Example 4-63, (3S,6R,9S,12R,15S,18R,21S,24R)-6-benzyl-3,9,15,21-tetraisobutyl-4,10,12,16,22,24-hexamethyl-18-(4-((1-methyl-1H-pyrazol-5-yl)methyl)benzyl)-1,7,13,19-tetraoxa-4,10,16,22-tetraazacyclotetracosan-2,5,8,11,14,17,20,23-octaone] | < 1 | 1 | ≤ 1 | 0.001 | 1 | 0.001
5 | CC(C)C[C@H]1C(=O)O[C@H](Cc2ccc(Cc3sccc3Cl)cc2)C(=O)N(C)[C@@H](CC(C)C)C(=O)O[C@H](C)C(=O)N(C)[C@@H](CC(C)C)C(=O)O[C@H](Cc2ccccc2)C(=O)N(C)[C@@H](CC(C)C)C(=O)O[C@H](C)C(=O)N1C [Example 4-75, (3S,6R,9S,12R,15S,18R,21S,24R)-6-benzyl-18-(4-((3-chlorothiophen-2-yl)methyl)benzyl)-3,9,15,21-tetraisobutyl-4,10,12,16,22,24-hexamethyl-1,7,13,19-tetraoxa-4,10,16,22-tetraazacyclotetracosan-2,5,8,11,14,17,20,23-octaone] | < 1 | 1 | ≤ 1 | 0.0005 | 20 | 0.01
6 | COc1ccsc1Cc1ccc(C[C@H]2OC(=O)[C@H](CC(C)C)N(C)C(=O)[C@@H](C)OC(=O)[C@H](CC(C)C)N(C)C(=O)[C@@H](Cc3ccccc3)OC(=O)[C@H](CC(C)C)N(C)C(=O)[C@@H](C)OC(=O)[C@H](CC(C)C)N(C)C2=O)cc1 [Example 4-105, (3S,6R,9S,12R,15S,18R,21S,24R)-6-benzyl-3,9,15,21-tetraisobutyl-18-(4-((3-methoxythiophen-2-yl)methyl)benzyl)-4,10,12,16,22,24-hexamethyl-1,7,13,19-tetraoxa-4,10,16,22-tetraazacyclotetracosan-2,5,8,11,14,17,20,23-octaone] | < 1 | 0.3 | ≤ 1 | 0.0002 | 25 | 0.005
7 | CC(C)C[C@H]1C(=O)O[C@H](Cc2ccc(Cc3scnc3Cl)cc2)C(=O)N(C)[C@@H](CC(C)C)C(=O)O[C@H](C)C(=O)N(C)[C@@H](CC(C)C)C(=O)O[C@H](Cc2ccccc2)C(=O)N(C)[C@@H](CC(C)C)C(=O)O[C@H](C)C(=O)N1C [Example 4-107, (3S,6R,9S,12R,15S,18R,21S,24R)-6-benzyl-18-(4-((4-chlorothiazol-5-yl)methyl)benzyl)-3,9,15,21-tetraisobutyl-4,10,12,16,22,24-hexamethyl-1,7,13,19-tetraoxa-4,10,16,22-tetraazacyclotetracosan-2,5,8,11,14,17,20,23-octaone] | < 1 | 0.3 | ≤ 1 | 0.0002 | 15 | 0.003
8 | Cc1noc(C)c1Cc1ccc(C[C@H]2OC(=O)[C@H](CC(C)C)N(C)C(=O)[C@@H](C)OC(=O)[C@H](CC(C)C)N(C)C(=O)[C@@H](Cc3ccccc3)OC(=O)[C@H](CC(C)C)N(C)C(=O)[C@@H](C)OC(=O)[C@H](CC(C)C)N(C)C2=O)cc1 [Example 4-109, (3S,6R,9S,12R,15S,18R,21S,24R)-6-benzyl-18-(4-((3,5-dimethylisoxazol-4-yl)methyl)benzyl)-3,9,15,21-tetraisobutyl-4,10,12,16,22,24-hexamethyl-1,7,13,19-tetraoxa-4,10,16,22-tetraazacyclotetracosan-2,5,8,11,14,17,20,23-octaone] | < 1 | 1 | ≤ 1 | 0.0004 | 2.5 | 0.001
9 | COc1ccc(Cc2ccc(C[C@H]3OC(=O)[C@H](CC(C)C)N(C)C(=O)[C@@H](C)OC(=O)[C@H](CC(C)C)N(C)C(=O)[C@@H](Cc4ccccc4)OC(=O)[C@H](CC(C)C)N(C)C(=O)[C@@H](C)OC(=O)[C@H](CC(C)C)N(C)C3=O)cc2)c(C)n1 [Example 4-118, (3S,6R,9S,12R,15S,18R,21S,24R)-6-benzyl-3,9,15,21-tetraisobutyl-18-(4-((6-methoxy-2-methylpyridin-3-yl)methyl)benzyl)-4,10,12,16,22,24-hexamethyl-1,7,13,19-tetraoxa-4,10,16,22-tetraazacyclotetracosan-2,5,8,11,14,17,20,23-octaone] | < 1 | 0.3 | ≤ 1 | 0.0001 | 10 | 0.001
